Data on 13 compounds can be found in patent publication US20060159772A1, “Fungicidal compositions” (priority 2002, published 2006).

The test system of one assay is Plasmopara viticola. Kind of assay: Greenhouse test against downy mildew, preventive application to vine leaves (Example 4). It counts as in vivo, Plasmopara viticola on vine plants, cv. Dolcetto. The settings on record: for pest or weed control at 0.2 ppm: 0.20 ppm. As for the experimental part: Determination of the fungicidal efficacy against downy mildew (Plasmopara viticola) in preventive application to vine leaves in greenhouse.
Leaves of vine plants, cv. Dolcetto, grown up in pots in conditioned environment at 25° C. and 60% relative humidity, were sprayed on both sides with hydroacetonic solutions (20% of acetone by volume) of the compounds under testing, the potassium phosphite (K2HPO3+KH2PO3) aqueous solutions and the mixtures of both components.
Seven days after the treatments, the leaves of treated plants and untreated controls were sprayed on the lower surface with aqueous suspension of Plasmopara viticola conidia (200.000 conidia/ml); after beeing kept for 24 h at 21° C. in environment moist at saturation, the plants were transfered to other conditioned environment at 70% relative humidity and 21° C. for 7 days.
After this period the degree of infection was evaluated and the activity of the compounds tested was expressed as % of disease control in comparison to the untreated controls: 100=healty plant; 0=completely infected plant.
In tables 6-20 are reported the results obtained for the compounds tested alone and in mixture with potassium phosphite at the indicated dosages. When the % disease control value found is higher than the value expected applying the Limpel formula (see Example 3), a synergic effect is verified.

A further assay concerns Phytophthora infestans. It counts as in vivo, Phytophthora infestans on potato plants, Miura variety. As to conditions: 1400 g/hl active principle; average of 3 tests on potato plants in Great Britain, 2002.

Where two headings read alike, the source gives them in different places.

Take `CO/C=C(/C(=O)OC)c1ccccc1Oc1cc(Oc2ccccc2C#N)ncn1` [azoxystrobin]: in the assay with Plasmopara viticola (0.11 ppm, Table 11), the “% Disease Control: found” value stood at 69%. As for `CC(C)OC(=O)N[C@H](C(=O)N[C@H](C)c1nc2ccc(F)cc2s1)C(C)C` [benthiavalicarb], the pest or weed control at 0.25 ppm in the assay on Plasmopara viticola (Plasmopara viticola, topical, 168 h, 0.25 ppm, Table 10, read-out: % Disease Control: found) worked out at 47%. Turning to `N#Cc1c(Cl)c(Cl)c(Cl)c(C#N)c1Cl` [chlorothalonil, 1,3-dicyano-2,4,5,6-tetrachlorobenzene], the pest or weed control at 7.5 ppm in the assay with Plasmopara viticola (Plasmopara viticola, topical, 168 h, 7.5 ppm, Table 16, read-out: % Disease Control: found) stood at 46%. For `Cc1ccc(-c2c(Cl)nc(C#N)n2S(=O)(=O)N(C)C)cc1` [cyazofamide, 2-cyano-4-chloro-′5-(4-methylphenyl)-1-(N,N-dimethylaminosulfamoyl)-imidazole], the “% Disease Control: found” value with Plasmopara viticola (15 ppm, Table 14) is listed as 68%. Take `CCNC(=O)NC(=O)C(C#N)=NOC` [cymoxanil, 1-(2-cyano-2-methoxyimino-acetyl)-3-ethyl urea]: the pest or weed control at 30 ppm in the assay with Plasmopara viticola (Plasmopara viticola, topical, 168 h, 30 ppm, Table 6, read-out: % Disease Control: found) was found to be 59%. On to `COc1ccc(C(=CC(=O)N2CCOCC2)c2ccc(Cl)cc2)cc1OC` [dimethomorph, (E,Z)-4-[3-(4-chlorophenyl)-3-(3,4-dimethoxyphenyl)acryloyl]-morpholine], for which the pest or weed control at 0.45 ppm in the assay with Plasmopara viticola (Plasmopara viticola, topical, 168 h, 0.45 ppm, Table 15, read-out: % Disease Control: found) was 73%. On to `CC1(c2ccc(Oc3ccccc3)cc2)OC(=O)N(Nc2ccccc2)C1=O` (centres unmarked) [famoxadone, 5-methyl-5-(4-phenoxyphenyl)-3-(phenylamino)oxazolidin-2,4-dione], for which the pest or weed control at 0.45 ppm in the assay with Plasmopara viticola (Plasmopara viticola, topical, 168 h, 0.45 ppm, Table 12, read-out: % Disease Control: found) was 56%. `O=[N+]([O-])c1cc(C(F)(F)F)c(Cl)c([N+](=O)[O-])c1Nc1ncc(C(F)(F)F)cc1Cl` [fluazinam, 3-chloro-N-(3-chloro-5-trifluoromethyl-2-pyridyl)-α,α,α-trifluoro-2,6-dinitro-p-toluidine]: the pest or weed control at 20 ppm with Plasmopara viticola (Plasmopara viticola, topical, 168 h, 20 ppm, Table 20, read-out: % Disease Control: found) came out at 48%. Turning to `Cc1ccc(C(C)NC(=O)C(NC(=O)OC(C)C)C(C)C)cc1` (centres unmarked) [iprovalicarb, O-(1-methyl-ethyl)-N-[2-methyl-1-[[[1-(4-methylphenyl)-ethyl]amino]carbonyl]propyl]carbamate], the “% Disease Control: found” value in the assay with Plasmopara viticola (0.45 ppm, Table 9) came out at 50%. With `COCC(=O)N(c1c(C)cccc1C)[C@H](C)C(=O)OC` [mefenoxam, methyl N-(2-methoxyacetyl)-N-2,6-xylyl-R-alaninate], the pest or weed control at 0.1 ppm in the assay with Plasmopara viticola (Plasmopara viticola, topical, 168 h, 0.10 ppm, Table 8, read-out: % Disease Control: found) came to 48%. `COCC(=O)N(c1c(C)cccc1C)C(C)C(=O)OC` (centres unmarked) [metalaxyl, methyl N-(2-methoxyacetyl)-N-2,6-xylyl-RS-alaninate]: in the assay with Plasmopara viticola (Plasmopara viticola, topical, 168 h, Table 7, read-out: % Disease Control: found), the pest or weed control at 0.2 ppm came out at 45%. `COCC(=O)N(c1c(C)cccc1C)N1CCOC1=O` [oxadixyl, 2-methoxy-N-(2-oxo-1,3-oxazolidin-3-yl)aceto-2′,6′-xylidide]: in the assay with Plasmopara viticola (Plasmopara viticola, topical, 168 h, Table 18, read-out: % Disease Control: found), the pest or weed control at 0.2 ppm was found to be 49%.

For potassium phosphite (K2HPO3+KH2PO3), the “% disease control leaves” value with Phytophthora infestans amounted to 23%. In addition, in the assay with Plasmopara viticola (60 ppm, inoculation 7 days after treatment), the “% Disease Control: found” value was found to be 35%.
